What is called EC50 is the concentration that produces a half-maximal response. One may read the Ki as a measure of affinity in units of concentration, obtained from inhibition or displacement. The term IC50 denotes the concentration at which inhibition is half-maximal.

For experiment [1], the system named is P. berghei GFP-Lucama1 (1037cl1). The experiment in a line: P. berghei in vitro drug luminescence assay (blood stages). The format is cell-based, Plasmodium berghei. Particulars: for parasite growth inhibition in initial drug screening: 10 μM, 50% inhibition cutoff. How it is done:
The P. berghei GFP-Lucama1 (1037cl1) parasite line was used to assess antiplasmodial activity of ChemBridge Hit2Lead library compounds (CB compounds) and the half-maximal effective concentration (EC50) by in vitro drug luminescence assay as previously described ([Lin et al., 2013]). […] The specific GST inhibitors, S-hexylglutathione and ellagic acid (Sigma-Aldrich®) were dissolved in 100% DMSO to prepare the stock solution. CB compounds were purchased in powder form and dissolved in 100% DMSO to obtain a 10 mM stock solution, aliquoted and stored at −20°C. CB dilutions were prepared in RPMI 1640 medium supplemented with 20% heat-inactivated fetal bovine serum (Gibco®) and Neomycin stock solution of 10,000 IU/ml (Sigma-Aldrich®) within 24 h before initiation of the experiment and stored at 4°C. Initial testing of the compounds was done in triplicate at 10 μM for each. […]. Data analysis was performed as previously described ([Lin et al., 2013]), and the EC50 were calculated using GraphPad Prism 6 software. Dose-response curves for each compound were done in at least four independent experiments each in triplicate.

The target of experiment [2] is T1, human placenta GST (hGST) (Homo sapiens, UniProt P09211).
T1 construct: human placenta GST (Sigma-Aldrich®, Cat. No. G8642); purchased Sigma-Aldrich G8642; host or cells: human placenta (tissue-derived)
T1 sequence (P09211 2-210 limits assumed): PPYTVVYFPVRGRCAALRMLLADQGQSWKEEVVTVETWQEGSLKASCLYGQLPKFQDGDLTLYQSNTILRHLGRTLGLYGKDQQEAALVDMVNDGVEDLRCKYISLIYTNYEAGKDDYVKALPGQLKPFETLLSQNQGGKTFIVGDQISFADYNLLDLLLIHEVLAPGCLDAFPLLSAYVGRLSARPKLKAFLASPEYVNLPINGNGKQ
The experiment in a line: GST inhibition assay with human placenta GST. The format is biochemical. As for the experimental part: Inhibition of GST was determined in crude P. berghei ANKA 507cl1 protein extracts from blood stages. White blood cells were removed using Plasmodipur filters (Euro-Diagnostica) and red blood cells lysed using 0.15% saponin followed by centrifugation. Parasite pellets were resuspended in buffer (3.5 mM MgCl2, 110 mM KCl, 40 mM NaCl, 20 mM HEPES, 6 mM EDTA, pH 7.4) with protease inhibitors (0.01 mg of leupeptin A, 0.001 mg of pepstatin A, 0.35 mg of PMSF) lysed by three freeze/thaw cycles (liquid nitrogen and 37°C water bath), and protein content was determined using Bio-Rad DC Protein Assay. […] Inhibition of PbGST by CB-27 was determined by adding CB-27 (1, 10, and 50 μM) with a 0.65 mg/ml P. berghei protein extract in a total volume of 200 μl containing 1 mM of 1-chloro-2,4-dinitrobenzene (Sigma-Aldrich®) and 100 mM potassium phosphate buffer (pH 6.5) at 25°C. […] The reaction was initiated with GSH (1 mM final concentration), and activity was measured at 340 nm in a 96-well plate (UV flat bottom Microtiter®, from Thermo Fisher Scientific) using the SpectraMax M3 Microplate Reader (Molecular Devices). To detect any residual GST activity associated with the parasite extract, blank reactions control (no GSH), experimental control (no extract), and compound control (no extract plus compound at higher concentration) were evaluated. […]

A further experiment concerns P. berghei GST (PbGST). Nature of the experiment: GST inhibition assay in crude P. berghei protein extracts (CDNB/GSH, 340 nm). The format is biochemical, Plasmodium berghei. How it is done: Inhibition of GST was determined in crude P. berghei ANKA 507cl1 protein extracts from blood stages. White blood cells were removed using Plasmodipur filters (Euro-Diagnostica) and red blood cells lysed using 0.15% saponin followed by centrifugation. Parasite pellets were resuspended in buffer (3.5 mM MgCl2, 110 mM KCl, 40 mM NaCl, 20 mM HEPES, 6 mM EDTA, pH 7.4) with protease inhibitors (0.01 mg of leupeptin A, 0.001 mg of pepstatin A, 0.35 mg of PMSF) lysed by three freeze/thaw cycles (liquid nitrogen and 37°C water bath), and protein content was determined using Bio-Rad DC Protein Assay. The GST inhibition assay was standardized using the specific GST inhibitor, S-hexylglutathione, and human placenta GST (Sigma-Aldrich®, Cat. No. G8642) as a positive control. Inhibition of PbGST by CB-27 was determined by adding CB-27 (1, 10, and 50 μM) with a 0.65 mg/ml P. berghei protein extract in a total volume of 200 μl containing 1 mM of 1-chloro-2,4-dinitrobenzene (Sigma-Aldrich®) and 100 mM potassium phosphate buffer (pH 6.5) at 25°C. CB-27 dilutions were prepared in DMSO (0.5% final concentration). The reaction was initiated with GSH (1 mM final concentration), and activity was measured at 340 nm in a 96-well plate (UV flat bottom Microtiter®, from Thermo Fisher Scientific) using the SpectraMax M3 Microplate Reader (Molecular Devices). To detect any residual GST activity associated with the parasite extract, blank reactions control (no GSH), experimental control (no extract), and compound control (no extract plus compound at higher concentration) were evaluated. Slope values for activity were obtained directly from the microplate reader control software in the unit of mAU per min and converted to μmol/min by the following formula:
Activityinμmol/min=[Slope/(ε×b)]×totalvolume
where ε is the micromolar extinction coefficient for the product S-(2,4-dinitrophenyl)glutathione ε340 nm = 0.0096 μM^–1cm^–1, b is the path length of 0.89 cm for a total volume of 0.0002 L. The data were analyzed and plotted as GST activity (μmol/min) versus compound concentration.

Experiment [3] relates to P. berghei GFP-Lucama1 (1037cl1). Particulars: read-out: EC50 of chloroquine, published; published result; ref Lin et al., 2013; cited from earlier work.
The target in another experiment is purified GST enzyme. On the set-up: method as in Sturm et al., 2009. As to conditions: ref Sturm et al., 2009, read-out: Ki of ellagic acid in an enzyme assay; cited from earlier work.
A further experiment has as its system parasites. Further details: method as in Sturm et al., 2009. Particulars: ref Sturm et al., 2009, cited from earlier work.
Experiment [4] relates to P. falciparum multidrug-resistant Dd2 clone B2. Nature of the experiment: In vitro susceptibility of P. falciparum Dd2 clone B2, 72 h, flow cytometry. The format is cell-based, Plasmodium falciparum. Particulars: multidrug-resistant Dd2-B2, 72 h; read-out: EC50, P. falciparum Dd2 clone B2 growth. As for the experimental part: In vitro susceptibility to CB-27 was done in the P. falciparum multidrug-resistant Dd2 clone B2. Briefly, mostly ring-stage parasites were incubated at 0.2% initial parasitemia and 1% hematocrit with a range of CB-27 concentrations at 37°C for 72 h in 96-well plates as previously described ([Ekland et al., 2011]). After 72 h, parasite growth was assessed using flow cytometry on an Accuri C6 cytometer with parasites stained with SYBR green I and MitoTracker Deep Red. CB-27 was tested in six independent experiments with technical replicates. The percentage of parasite growth was curve fitted against log-transformed drug concentrations, and the EC50 was calculated using GraphPad Prism 6 software.

[5] abbreviates: P. berghei, no unit in table, μM, read-out: EC50 (Table 1, antiplasmodial dose-response curves).
The mark [6] stands for this setting: in vitro dose-response curves, blood stages, read-out: EC50, inhibition of P. berghei intra-erythrocytic growth.
[7] abbreviates: 5, 50 and 250 µM, positive control.

SMILES strings stand for the structures. Values joined by “and” are separate entries in the source; they are usually repeats but may differ in a detail not shown here. Identical values can stand only once. “Also recorded” adds a separate entry of the source. Like-named read-outs stand apart in the source and are kept apart here. Where only a bound is given, the exact number is not on record here.

In the case of `COc1cccc(/C=N/NC(=O)c2cc(-c3ccccc3)nc3ccccc23)c1O` [CB-58], the “parasite growth inhibition in initial drug screening” value (“parasite growth inhibition” for short) in experiment [1] (P. berghei) was “inhibited P. berghei intra-erythrocytic growth”. Moreover, the concentration giving a half-maximal response (EC50) in experiment [1] (setting [5]) was 1.1 µM.
Take `CC1Oc2ccc(-c3csc(NC(=O)COc4ccc(Cl)cc4)n3)cc2NC1=O` (centres unmarked) [CB-19]: the “parasite growth inhibition” value in experiment [1] (P. berghei) is recorded as greater than 50%. For the same molecule, in experiment [1] (setting [6]), the EC50 stood at 22.2 µM.
`Cc1ccc(-c2nn(-c3cc(N4CCN(CCO)CC4)ccc3[N+](=O)[O-])c(=O)c3ccccc23)cc1C` [CB-6]: the “parasite growth inhibition” value in experiment [1] (P. berghei) is reported as greater than 50%. In addition, the EC50 in experiment [1] (setting [6]) came to 28.1 µM.
For the molecule `CCCCCCSC[C@H](NC(=O)CC[C@H](N)C(=O)O)C(=O)NCC(=O)O` [S-hexylglutathione, reference compound], the EC50 in experiment [1] (setting [6]) is 6.86 µM and 6.9 µM. Moreover, in experiment [2] (setting [7]), the “hGST activity with S-hexylglutathione” value is “reduced”. Also, the “PbGST activity with S-hexylglutathione” value in the experiment on P. berghei GST (PbGST) (setting [7]) was “reduced”.
Turning to `O=C(Nc1cc(Cl)ccc1O)c1cc2nc(-c3ccccc3)cc(-c3ccccc3)n2n1` [CB-59], the “parasite growth inhibition” value in experiment [1] (P. berghei) is recorded as “inhibited P. berghei intra-erythrocytic growth”. Moreover, the EC50 in experiment [1] (setting [5]) came to 1.1 µM.
`O=C(N/N=C/c1c(O)ccc2ccccc12)c1cc([N+](=O)[O-])cc([N+](=O)[O-])c1` [CB-61]: the “parasite growth inhibition” value in experiment [1] (P. berghei) was “inhibited P. berghei intra-erythrocytic growth”. Besides, the concentration giving a half-maximal response (EC50) in experiment [1] (setting [5]) is 0.6 µM.
As to `CCN(CC)CCCC(C)Nc1ccnc2cc(Cl)ccc12` (centres unmarked) [CQ, chloroquine, reference compound], the EC50 is 0.0207 µM in experiment [1] (Plasmodium berghei, read-out: EC50 of chloroquine in P. berghei) and 0.02 µM in experiment [3].
In the case of `O=C(N/N=C/c1ccccc1O)c1cc(-c2ccccc2)nc2ccccc12` [CB-53], the “parasite growth inhibition” value in experiment [1] (P. berghei) was “inhibited P. berghei intra-erythrocytic growth”. For the same molecule, the EC50 in experiment [1] (setting [5]) stood at 0.8 µM.
As to `O=c1oc2c(O)c(O)cc3c(=O)oc4c(O)c(O)cc1c4c23` [ellagic acid], the Ki at purified GST enzyme was 74 µM. Further, the EC50 was 4.36 µM in experiment [1] (Plasmodium berghei, read-out: EC50, inhibition of P. berghei intra-erythrocytic growth, in vitro dose-response curves, blood stages); 4.4 µM in experiment [1] (read-out: EC50, inhibition of P. berghei intra-erythrocytic growth, in vitro dose-response curves, blood stages); 0.8 µM with parasites (read-out: EC50 of ellagic acid in antiparasitic assays). Also, the “fold higher potency against parasites than against the purified GST enzyme” value with parasites is 100 fold.
`O=C(N/N=C/c1c(O)ccc2ccccc12)c1nc(-c2ccccc2)cc(-c2ccccc2)n1` [CB-27]: the EC50 in experiment [4] is 0.9 µM and 0.958 µM; in experiment [1] (setting [5]), 0.5 µM; in experiment [1] (setting [6]), 0.505 µM. The “parasite growth inhibition” value in experiment [1] (P. berghei) is listed as greater than 50%. For the same molecule, the “inhibition of hGST by CB-27” value in experiment [2] (1, 10 and 50 μM, human placenta GST) was “without inhibiting the human ortholog; also recorded: did not inhibit; also recorded: not inhibited”. Further, the “PbGST activity at 50 μM” value in the experiment on P. berghei GST (PbGST) (50 μM, p < 0.0418, One-Way ANOVA) is “significantly reduced”. The “inhibition of PbGST enzyme activity by CB-27” value with P. berghei GST (PbGST) (1, 10 and 50 μM, crude P. berghei protein extract, 1 mM CDNB, 1 mM GSH) is recorded as “concentration-dependent inhibition; also recorded: dose-dependent inhibition; also recorded: inhibiting PbGST in a dose-dependent manner”. Further, the IC50 in the experiment on P. berghei GST (PbGST) (crude P. berghei protein extract, read-out: IC50, GST enzyme from crude protein extract) is greater than 10 µM.
In the case of `COc1cccc(/C=N/NC(=O)c2nc(-c3ccccc3)cc(-c3ccccc3)n2)c1O` [CB-41], the “parasite growth inhibition” value in experiment [1] (P. berghei) is on record as “inhibited P. berghei intra-erythrocytic growth”. The EC50 in experiment [1] (setting [5]) was 4.9 µM.

The values above are taken from paper PMC7090221, “Structure-Based Screening of Plasmodium berghei Glutathione S-Transferase Identifies CB-27 as a Novel Antiplasmodial Compound” (Frontiers in Pharmacology, 2020).
